The structures appear in SMILES notation.

For assay [1], the target named is rat CYP17 lyase (Rattus norvegicus (Rat), UniProt P11715). The assay can be described thus: rat CYP 17 Lyase model, rat testes microsomes as the source. The settings on record: for IC50: rat testes microsomes, substrate 0.5 μM, read-out: Lyase IC 50 nM Human/Rat (Rat); for inhibition at 0.1 µM: 100 nM compound, read-out: rCYP17 Lyase % Inh @ 100 nM. Format: biochemical. The procedure: For routine screening, the assay was set up with 16 μg of enzyme in 50 μL reaction volume. 17α-hydroxy pregnenolone [21-3H] was added to a final concentration of 0.25 μM. NADPH is used at a final concentration of 4.2 mM. Total reaction volume was made up to 50 μL with 50 mM Phosphate buffer pH 7.5. The reaction mixture was incubated at room temperature for 90 minutes with gentle shaking. The reaction was stopped by the addition of 100 μL of buffer. 500 μL of 5% freshly prepared activated charcoal was added to the solution and mixed well by vortexing. The samples were centrifuged at 17568×g for 5 minutes. (14000 rpm). The supernatant was carefully transferred to fresh tube and 1.3 mL of scintillation fluid was added, mixed by vortexing.
The radioactivity was measured in a 1450 MicroBeta TriLux™ scintillation counter from Wallac-Perkin Elmer®, USA. The measurements were carried out in 2.0 mL Eppendorforf™ tubes. Each tube was counted for 1 minute. The amount of tritiated acetic acid released is proportional to the lyase activity. Percent lyase activity in presence of inhibitor was calculated using the formula given below.
[formula] • Sample: Enzyme reaction in presence of inhibitor. • Positive control: Enzyme reaction without inhibitor but containing DMSO at 1% final concentration. • Blank-Contains all reagents except enzyme. % Inhibition=100%−% Lyase activity
For IC50 determination, the % inhibition was plotted as a function of inhibitor concentration. The data was fitted to sigmoidal equation using Graphpad Prism® software IV to generate IC50 values.
For the rat CYP 17 Lyase Model:
The same procedure described above was used but using rat testes microsomes as the source and with a substrate concentration of 0.5 μM.

For assay [2], the target named is recombinant human CYP17 enzyme (Homo sapiens (Human), UniProt P05093). The experiment in a line: Cytochrome P450, 17-20 lyase (CYP17-lyase) assay, tritiated acetic acid release from 17-α-hydroxy pregnenolone [21-3H]. Format: biochemical. The settings on record: human CYP17, substrate 0.25 μM; read-out: Lyase IC 50 nM Human/Rat (Human). Summed up:
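Membranes of cells expressing human CYP17 incubated 90 min at room temperature with [21-3H]17α-hydroxypregnenolone and 4.2 mM NADPH in 50 mM phosphate pH 7.5. Released tritiated acetic acid separated from steroids by charcoal and counted by scintillation; IC50 from sigmoidal fit of % inhibition.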

rat CYP17 lyase, sequence (P11715 whole entry): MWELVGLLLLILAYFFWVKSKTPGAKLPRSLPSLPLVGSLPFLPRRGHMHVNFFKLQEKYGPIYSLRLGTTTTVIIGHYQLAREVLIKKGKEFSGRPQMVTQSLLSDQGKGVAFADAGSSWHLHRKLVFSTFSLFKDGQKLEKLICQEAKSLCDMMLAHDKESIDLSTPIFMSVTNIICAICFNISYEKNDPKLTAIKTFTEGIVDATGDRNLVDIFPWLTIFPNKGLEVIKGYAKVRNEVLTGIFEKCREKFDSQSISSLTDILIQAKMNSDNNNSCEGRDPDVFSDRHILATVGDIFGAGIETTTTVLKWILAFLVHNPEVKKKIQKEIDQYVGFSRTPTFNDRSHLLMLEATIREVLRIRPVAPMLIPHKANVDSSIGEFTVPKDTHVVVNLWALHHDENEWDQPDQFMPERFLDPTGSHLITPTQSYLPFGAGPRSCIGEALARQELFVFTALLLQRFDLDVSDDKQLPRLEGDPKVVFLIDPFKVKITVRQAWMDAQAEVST
recombinant human CYP17 enzyme, sequence (P05093 whole entry): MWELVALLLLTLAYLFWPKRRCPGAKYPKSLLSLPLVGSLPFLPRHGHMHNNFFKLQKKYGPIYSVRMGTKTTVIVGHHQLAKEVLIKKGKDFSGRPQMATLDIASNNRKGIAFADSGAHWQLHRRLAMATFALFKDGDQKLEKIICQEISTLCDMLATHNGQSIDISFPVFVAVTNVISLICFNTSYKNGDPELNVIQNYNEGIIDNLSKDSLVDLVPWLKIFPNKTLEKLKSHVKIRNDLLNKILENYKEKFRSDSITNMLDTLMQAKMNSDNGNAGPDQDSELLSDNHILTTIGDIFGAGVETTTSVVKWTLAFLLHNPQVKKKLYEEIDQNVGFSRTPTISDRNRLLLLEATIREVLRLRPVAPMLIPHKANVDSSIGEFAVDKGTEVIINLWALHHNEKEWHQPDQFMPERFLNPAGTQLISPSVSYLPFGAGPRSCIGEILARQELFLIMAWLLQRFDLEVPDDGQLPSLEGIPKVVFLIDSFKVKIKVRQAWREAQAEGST

As for `COc1cc(N2CCN(c3cnccc3C)C2=O)ccn1` [Example 72A, 1-(2-Methoxy-pyridin-4-yl)-3-(4-methyl-pyridin-3-yl)-imidazolidin-2-one], the results for the IC50 in assay [1] and in assay [2] were 10 nM and 9.4 nM, respectively.

On to `O=C1N(c2cccnc2)CCN1c1ccc2ccccc2c1` [Example 1A, 1-Naphthalen-2-yl-3-pyridin-3-yl-imidazolidin-2-one], for which, in assay [1], the inhibition at 0.1 µM came out at 84% and the IC50 was determined as 35 nM. The IC50 in assay [2] was 34 nM.

Consider `Cc1ccncc1N1CCN(c2ccsc2)C1=O` [Example 31A, 1-(4-Methyl-pyridin-3-yl)-3-thiophen-3-yl-imidazolidin-2-one], for which the inhibition at 0.1 µM in assay [1] turned out to be 74%. The IC50 in assay [2] was 108 nM.

In the case of `Cc1ccncc1N1CCN(c2ccc3ncsc3c2)C1=O` [Example 16A, 1-Benzothiazol-6-yl-3-(4-methyl-pyridin-3-yl)-imidazolidin-2-one], in assay [1], the inhibition at 0.1 µM was determined as 94% and the IC50 came to 5 nM. Also, in assay [2], the IC50 turned out to be 6 nM.

Turning to `Cc1ccncc1N1CCN(c2ccc(Cl)s2)C1=O` [Example 41A, 1-(5-Chloro-thiophen-2-yl)-3-(4-methyl-pyridin-3-yl)-imidazolidin-2-one], the IC50 was 3 nM in assay [1] and 10 nM in assay [2].

`Cc1ccncc1N1CCN(c2cnc3ccccc3c2)C1=O` [Example 24A, 1-(4-Methyl-pyridin-3-yl)-3-quinolin-3-yl-imidazolidin-2-one]: the inhibition at 0.1 µM in assay [1] turned out to be 98%. Moreover, the IC50 in assay [2] was found to be 72 nM.

With `Cc1ccncc1N1CCN(c2ccc3occ(C)c3c2)C1=O` [Example 29A, 1-(3-Methyl-benzofuran-5-yl)-3-(4-methyl-pyridin-3-yl)-imidazolidin-2-one], the inhibition at 0.1 µM in assay [1] is 98%. For the same compound, the IC50 in assay [2] amounted to 3 nM.

`CCn1c(=O)cc(C)c2cc(N3CCN(c4cnccc4C)C3=O)ccc21` [Example 20A, 1-Ethyl-4-methyl-6-[3-(4-methyl-pyridin-3-yl)-2-oxo-imidazolidin-1-yl]-1-1H-quinolin-2-one]: in assay [1], the inhibition at 0.1 µM worked out at 69% and the IC50 is 56 nM.

Take `Cc1ccncc1N1CCN(c2ccc3ccccc3n2)C1=O` [Example 23A, 1-(4-Methyl-pyridin-3-yl)-3-quinolin-2-yl-imidazolidin-2-one]: in assay [1], the inhibition at 0.1 µM amounted to 85% and the IC50 was 20 nM.

Regarding `O=C1N(c2cccnc2)CCN1c1ccc2c(c1)CC/C2=N\O` [Example 12A], the inhibition at 0.1 µM in assay [1] is 17%.

For `O=C1N(c2cncc(C(F)(F)F)c2)CCN1c1ccc2ccccc2c1` [Example 79A, 1-Naphthalen-2-yl-3-(5-trifluoromethyl-pyridin-3-yl)-imidazolidin-2-one], the inhibition at 0.1 µM in assay [1] worked out at 3.6%.

For the compound `Cc1ccncc1N1CCN(c2ccc3[nH]c(=O)cc(C)c3c2)C1=O` [Example 22A, 4-Methyl-6-[3-(4-methyl-pyridin-3-yl)-2-oxo-imidazolodin-1yl]1H-quinolin-2-one], in assay [1], the inhibition at 0.1 µM worked out at 85% and the IC50 was 24 nM.

In the case of `Cc1ccncc1N1CCN(c2ccc3nc(Cl)cc(C)c3c2)C1=O` [Example 21A, 1-(2-Chloro-4-methyl-quinolin-6-yl)-3-(4-methyl-pyridin-3-yl)-imidazolidin-2-one], in assay [1], the inhibition at 0.1 µM came out at 98% and the IC50 turned out to be 5 nM.

For `Cc1c(N2CCN(c3cccnc3)C2=O)sc2ccc(F)cc12` [Example 6A, 1-(5-Fluoro-3-methyl-benzo[b]thiophen-2-yl)-3-pyridin-3-yl-imidazolidin-2-one], in assay [1], the inhibition at 0.1 µM was 51% and the IC50 turned out to be 157 nM.

On to `COc1ccncc1N1CCN(c2ccc3ncsc3c2)C1=O` [Example 124A, 1-Benzothiazol-6-yl-3-(4-methoxy-pyridin-3-yl)-imidazolidin-2-one], for which the IC50 in assay [1] was 12 nM; in assay [2], 23 nM.

Take `Cc1ccncc1N1CCN(c2ccc(F)nc2)C1=O` [Example 30A, 1-(6-Fluoro-pyridin-3-yl)-3-(4-methyl-pyridin-3-yl)-imidazolidin-2-one]: in assay [1], the inhibition at 0.1 µM stood at 76%.

`O=C1N(c2cccnc2)CCN1c1ccc2ncccc2c1` [Example 8A, 1-Pyridin-3-yl-3-quinolin-6-yl-imidazolidin-2-one]: the inhibition at 0.1 µM in assay [1] worked out at 48%.

Turning to `CCN1C(=O)CCc2cc(N3CCN(c4cccnc4)C3=O)ccc21` [Example 5A, 1-Ethyl-6-(2-oxo-3-pyridin-3-yl-imidazolidin-1-yl)-3,4-dihydro-1H-quinolin-2-one], the inhibition at 0.1 µM in assay [1] was 51%.

For `Cc1ccncc1N1CCN(c2cc3ccccc3s2)C1=O` [Example 26A, 1-Benzo[b]thiophen-2-yl-3-(4-methyl-pyridin-3-yl)-imidazolidin-2-one], in assay [1], the inhibition at 0.1 µM was found to be 100%. Further, the IC50 in assay [2] came out at 15 nM.

On to `O=C1N(c2cccnc2)CCN1c1ccc2ncsc2c1` [Example 4A, 1-Benzothiazol-6-yl-3-pyridin-3-yl-imidazolidin-2-one], for which the inhibition at 0.1 µM in assay [1] was 59%. Further, the IC50 in assay [2] was found to be 77 nM.

For the compound `COc1ccc2cc(N3CCN(c4cnccc4C)C3=O)ccc2c1` [Example 25A, 1-(6-Methoxy-naphthalen-2-yl)-3-(4-methyl-pyridin-3-yl)-imidazolidin-2-one], in assay [1], the inhibition at 0.1 µM worked out at 89%.

As for `Cc1ccncc1N1CCN(c2ccc3[nH]ncc3c2)C1=O` [Example 28A, 1-(1H-Indazol-5-yl)-3-(4-methyl-pyridin-3-yl)-imidazolidin-2-one], the inhibition at 0.1 µM in assay [1] came to 61%. Moreover, the values for the IC50 in assay [1] and in assay [2] were 52 nM and 4 nM, respectively.

As to `O=C1N(c2cccnc2)CCN1c1ccc2sccc2c1` [Example 7A, 1-Benzo[b]thiophen-5-yl-3-pyridin-3-yl-imidazolidin-2-one], in assay [1], the inhibition at 0.1 µM was 87% and the IC50 was found to be 16 nM.

Take `Cc1ccncc1N1CCN(c2ccc3ccccc3c2)C1=O` [Example 14A, 1-(4-Methyl-pyridin-3-yl)-3-naphthalen-2-yl-imidazolidin-2-one]: in assay [1], the inhibition at 0.1 µM stood at 102% and the IC50 is 2 nM. Also, the IC50 in assay [2] came out at 17 nM.

For the compound `Cc1ccncc1N1CCN(c2ccc3c(C)n[nH]c3c2)C1=O` [Example 102A, 1-(3-Methyl-1H-indazol-6-yl)-3-(4-methyl-pyridin-3-yl)-imidazolidin-2-one], the IC50 in assay [1] came to 5 nM; in assay [2], 7.5 nM.

Take `Cc1ccncc1N1CCN(c2ccc(-c3ccccc3)cc2)C1=O` [Example 19A, 1-Biphenyl-4-O-3-(4-methyl-pyridin-3-yl)-imidazolidin-2-one]: in assay [1], the inhibition at 0.1 µM amounted to 91% and the IC50 was 11 nM.

On to `CCN1C(=O)CCc2cc(N3CCN(c4cnccc4C)C3=O)ccc21` [Example 17A, 1-Ethyl-6-[3-(4-methyl-pyridin-3-yl)-2-oxo-imidazolidin-1-yl]-3,4-dihydro-1H-quinolin-2-one], for which, in assay [1], the inhibition at 0.1 µM was determined as 83% and the IC50 amounted to 21 nM.

As to `CCn1ccc2cc(N3CCN(c4cccnc4)C3=O)ccc21` [Example 2A, 1-(1-Ethyl-1H-indol-5-yl)-3-pyridin-3-yl-imidazolidin-2-one], the inhibition at 0.1 µM in assay [1] worked out at 23%.

Consider `O=C1N(c2cccnc2)CCCN1c1ccc2sccc2c1` [Example 13A, 1-Benzo[b]thiophen-5-yl-3-pyridin-3-yl-tetrahydro-pyrimidin-2-one], for which the inhibition at 0.1 µM in assay [1] is 9%.

Values taken from patent USRE45173E1, “Inhibitors of CYP 17” (Novartis AG, priority 2009, dated 2014).
